The source of these data is paper PMC8427442 (Frontiers in Pharmacology, 2021).

pEC50, pIC50: −log10 of the molar value. Where “and” joins values, the source holds several entries; their conditions need not be identical. Equal entries are not always repeated.

The subject of data set [1] is IL-6, IL-1β, IL-8 mRNA. In words: Proinflammatory gene mRNA by RT-PCR in LPS-stimulated A549 cells. The format is cell-based, human. The note with it: 20 µM; for potency in reducing the levels of the four proinflammatory factors (TNF-α, IL-6, IL-1β, IL-8), compared to UJ: LPS-stimulated A549 cells.
For data set [2], the target named is SARS-CoV-2 3CLpro (Severe acute respiratory syndrome coronavirus 2, UniProt P0DTD1). Nature of the data set: Protease activity assay with IQF peptide substrate, dose-response. The data set is classed as biochemical. Particulars: for pIC50: IC50 against SARS-CoV-2 3CLpro, 0.125 µM 3CLpro, 1 h preincubation at 37°C, 1.25 µM IQF peptide substrate, 3 h, N = 3, mean ± SEM; for relative SARS-CoV-2 3CLpro activity (down from 100%): compound at 12.5 µM, data not shown.

Data set [3] concerns the target SARS-CoV 3CLpro (Severe acute respiratory syndrome coronavirus, UniProt P0C6X7). The format is biochemical.
Data set [4] concerns SARS-CoV-2. In words: Plaque assay in SARS-CoV-2-infected Vero E6 cells. The format is cell-based.
Data set [5] has as its system TNF-α. In words: TNF-α protein level by western blot in LPS-stimulated A549 cells. Particulars: 20 µM, 1 h before 10 μg/ml LPS, 24 h. The format is cell-based, human. An excerpt:
For western blot analysis, an equal amount of the samples were resolved by SDS-PAGE, followed by transfer to PVDF membranes, following the protocol published previously ([Chiang et al., 2020]). Antibodies against TNF-α (GTX110520) and β-actin (GTX109639) were purchased from GeneTex, Taiwan. HRP-conjugated secondary antibodies were from Jackson ImmunoResearch Laboratories, Inc., United States. WesternBright® ECL kits were used for protein visualization (Advansta Inc., United States). Levels of protein expression were quantified in Fiji ([Schindelin et al., 2012]).
Human alveolar basal epithelial A549 cells have been used to investigate several lung diseases at the cellular level, including endotoxin-induced acute pneumonia ([Zhang J. et al., 2020]). To evaluate the anti-inflammatory effect of UJ, A549 cells were induced with lipopolysaccharide (LPS) for 24 h with or without treatment with UJ. Dexamethasone (Dex), an anti-inflammatory agent ([Chen et al., 2021]), was included as a positive control. […] In addition, the expression levels of proinflammatory genes, including interleukin 1β (IL-1β), IL-6 and IL-8 increased by 1.5- to 2-fold in LPS-stimulated A549 cells, compared with the control group (Figures 4B–D). […] Compared to the positive control (Dex at 5 µM), UJ treatment at 20 µM gave rise to a greater decrease in the TNF-α protein level and IL-6 and IL-8 mRNA. […]
A general note: A western blot detects proteins with antibodies after separation by electrophoresis.

Data set [6] in a line: in vitro. Particulars: African green monkey, half-maximal cytotoxic concentration (CC50).
Setting [7] is: 1 h before 10 μg/ml LPS, 24 h, A549 cells.

As a reminder, the pIC50 is the negative decadic logarithm of the IC50, by convention in mol/L. Low values mean a high IC50, high ones a low IC50. For the molecule `COc1c(-c2ccc(O)cc2)oc2cc(O)cc(O)c2c1=O` [Ikae, isokaempferide], the “potency in reducing the levels of the four proinflammatory factors (TNF-α, IL-6, IL-1β, IL-8), compared to UJ” value in data set [1] was “relatively moderate potency”. Moreover, in data set [2], the pIC50 is < 4.70 and 4.40; the “relative SARS-CoV-2 3CLpro activity (down from 100%)” value is 60–70%. Also, in data set [3], the “relative SARS-CoV 3CLpro activity (down from 100%)” value is recorded as 60–70%.

For orientation: inhibition means the share of the control response that was lost under treatment. For the molecule `CCC(CC)COC(=O)[C@H](C)N[P@](=O)(OC[C@H]1O[C@@](C#N)(c2ccc3c(N)ncnn23)[C@H](O)[C@@H]1O)Oc1ccccc1` [Rem, Remdesivir], in data set [4] (Severe acute respiratory syndrome coronavirus 2, Vero C1008, 2 µM, Vero E6 cells, plaque assay, read-out: inhibition of SARS-CoV-2 infection), the inhibition at 2 µM is ~95%.

What is called CC50 is the concentration at which the toxic effect on the cells reaches its halfway point. A high value points to lower toxicity to the cells. Take `C=C1CCCC(C)(C)[C@@H]1Cc1c(O)cc2oc(-c3ccc(O)c(O)c3)cc(=O)c2c1O` [UJ, ugonin J]: in data set [1] (setting [7]), the “downregulation of IL-1β mRNA expression level” value is given as “more than 1 fold”, the “downregulation of IL-6 mRNA expression level” value is reported as “more than 1 fold” and the “downregulation of IL-8 mRNA expression level” value was “more than 1 fold”. Moreover, the pEC50 in data set [4] (Severe acute respiratory syndrome coronavirus 2, Vero C1008, Vero E6 cells, 100 PFU, 1 h pretreatment, 3 days, N = 3, mean ± SEM, read-out: half-maximal effective concentration (EC50) against SARS-CoV-2 infection) is ~5.62. For the same molecule, the “prevention of SARS-CoV-2 infection” value in data set [4] (pretreatment at 10 µM, Vero E6 cells, plaque assay) is reported as “near complete prevention”. Further, the “reduction of TNF-α protein expression level” value in data set [5] is on record as “more than 2 fold”. Besides, the CC50 at 48 h in data set [6] is ~783 µM. In data set [2], the pIC50 was 6.03 and ~6.03; the “relative SARS-CoV-2 3CLpro activity (down from 100%)” value is given as “about 15%”. The “relative SARS-CoV 3CLpro activity (down from 100%)” value in data set [3] is on record as “about 15%”.

As to `O=c1cc(-c2ccc(O)c(O)c2)oc2cc(O)cc(O)c12` [Lu, luteolin], the pIC50 in data set [2] is < 4.70 and 4.69.

Turning to `O=c1c(O)c(-c2ccc(O)cc2)oc2cc(O)cc(O)c12` [Kae, kaempferol], the “potency in reducing the levels of the four proinflammatory factors (TNF-α, IL-6, IL-1β, IL-8), compared to UJ” value in data set [1] is given as “relatively moderate potency”. Besides, in data set [2], the pIC50 was < 4.70 and 4.66; the “relative SARS-CoV-2 3CLpro activity (down from 100%)” value was 60–70%. In data set [3], the “relative SARS-CoV 3CLpro activity (down from 100%)” value is 60–70%.
